How the values were obtained:
Format in all cases: cell-based
[1] = tested on: Wnt activity (SW480 colon carcinoma cells stably expressing the Sp5-Luc reporter gene); test: Sp5-Luc reporter gene screening assay for Wnt activity in SW480 cells; conditions: Homo sapiens, 42 h incubation, luminescence
Method in brief: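 SW480 cells stably carrying an Sp5 promoter (eight TCF/LEF sites)-luciferase reporter were plated overnight in 10% FCS medium. BrightGlo luminescence was normalised to DMSO wells, and IC50 was obtained by four-parameter fit.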

[2] = tested on: primary human mesenchymal stem cells (hMSCs); test: Chondrogenesis induction screen in primary human mesenchymal stem cells; conditions: 6 days, chondrogenic nodules, dose range 10-2700 nM
Experimental: The above synthesized compounds were screened using primary human mesenchymal stem cells (hMSCs) to determine their ability to induce chondrogenesis (process by which cartilage is developed).
Primary human mesenchymal stem cells (hMSCs) were purchased from Lonza (Walkersville, Md.) and expanded in Mesenchymal Stem Cell Growth Media (Lonza). Cells between passage 3 and 6 were used for the experiments.
Each compound was dissolved in DMSO as a 10 mM stock and used to prepare compound source plates. Serial dilution (1:3, 6-point dose-response curves from 2700 nM to 10 nM) and compound transfer was performed using the ECHO 550 (Labcyte, Sunnyvale, Calif.) into 96-well clear bottom assay plates (Greiner Bio-One) with appropriate DMSO backfill for a final DMSO concentration of 0.03%. hMSCs were plated at 20,000 cells/well in 250 μL/well Incomplete Chondrogenic Induction Medium (Lonza; DMEM, dexamethasone, ascorbate, insulin-transferrin-selenium [ITS supplement], gentamycin-amphotericin [GA-1000], sodium pyruvate, proline and L-glutamine). TGF-β3 (10 ng/mL) was used as a positive control for differentiation while negative control wells were treated with 75 nL DMSO for normalization and calculating EC50 values. Cells were incubated at 37° C. and 5% CO2 for 6 days. To image chondrogenic nodules, the cells were fixed using 4% formaldehyde (Electron Microscopy Sciences), and stained with 2 μg/mL Rhodamine B (Sigma-Aldrich) and 20 μM Nile Red (Sigma-Aldrich) [Johnson K., et.al, A Stem Cell—Based Approach to Cartilage Repair, Science, (2012), 336(6082), 717-721]. The nodules imaged (4 images per well at 4× magnification) by excitation at 531 nm and emission at 625 nm and quantified using the CellInsight CX5 (Thermo Scientific). Number of nodules in each well was normalized to the average of 3 DMSO treated wells on the same plate using Excel (Microsoft Inc.). The normalized averages (fold change over DMSO) of 3 replicate wells for each compound concentration were calculated. Due to solubility limitations of some of the compounds, curve fitting was incomplete leading to inaccurate EC50 determinations.
Using TGF-β3 as a positive control, the concentration of test compounds required to induce equivalent levels of chondrogenesis is reported. In addition, the maximum activity of each compound and the respective dose that each compound reached maximum chondrogenesis activity is reported.

[3] = tested on: primary human fibroblasts derived from IPF patients (LL29 cells); test: Inhibition of fibrosis (αSMA) in TGF-β1 treated primary human fibroblasts from IPF patients; conditions: Fibroblast, 96 h, TGF-β1 20 ng/mL, 4 days, % αSMA positive cells
Method in brief: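 IPF patient-derived LL29 lung fibroblasts in 1% FBS were treated with compound (11 points, 10 μM to 1.87 nM, 0.1% DMSO) and then 20 ng/mL TGF-β1 for 4 days at 37° C. Fraction of SYTOX-negative cells positive for αSMA was quantified by immunofluorescence imaging and normalized to TGF-β1 controls. EC50 came from non-linear regression over triplicate wells.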

| SMILES | IC50 [1] | Conc (nM) of Max. activity [2] | EC50 [3] |
| --- | --- | --- | --- |
| Nc1cncc(-c2ccc3[nH]nc(-c4nc5c(-c6ccccc6F)ccnc5[nH]4)c3c2)c1 [Compound 55, 5-(3-(7-(2-Fluorophenyl)-3H-imidazo[4,5-b]pyridin-2-yl)-1H-indazol-5-yl)pyridin-3-amine] | 1.8 nM | 30 nM | 0.017 nM |
| Cc1ccc(-c2ccnc3[nH]c(-c4n[nH]c5ccc(-c6cncc(NC(=O)C(C)C)c6)cc45)nc23)s1 [Compound 373, N-(5-(3-(7-(5-Methylthiophen-2-yl)-3H-imidazo[4,5-b]pyridin-2-yl)-1H-indazol-5-yl)pyridin-3-yl)isobutyramide] | 6.4 nM | 30 nM | 0.045 nM |
| Fc1cccc(-c2ccnc3[nH]c(-c4n[nH]c5ccc(-c6cncc(CN7CCC(F)(F)C7)c6)cc45)nc23)c1 [Compound 25, 2-(5-(5-((3,3-Difluoropyrrolidin-1-yl)methyl)pyridin-3-yl)-1H-indazol-3-yl)-7-(3-fluorophenyl)-3H-imidazo[4,5-b]pyridine] | < 1 nM | 30 nM | 0.099 nM |
| CN1CCN(c2ccnc3[nH]c(-c4n[nH]c5ccc(-c6cncc(CN7CCCCC7)c6)cc45)nc23)CC1 [Compound 223, 7-(4-Methylpiperazin-1-yl)-2-(5-(5-(piperidin-1-ylmethyl)pyridin-3-yl)-1H-indazol-3-yl)-3H-imidazo[4,5-b]pyridine] | 3070 nM |  | 0.009 nM |
| Cc1ccc(-c2ccnc3[nH]c(-c4n[nH]c5ccc(-c6cncc(NC(=O)C7CCCC7)c6)cc45)nc23)s1 [Compound 385, N-(5-(3-(7-(5-Methylthiophen-2-yl)-3H-imidazo[4,5-b]pyridin-2-yl)-1H-indazol-5-yl)pyridin-3-yl)cyclopentanecarboxamide] | 19.2 nM |  | 0.084 nM |
| CCCCC(=O)Nc1cncc(-c2ccc3[nH]nc(-c4nc5c(-c6ccoc6)ccnc5[nH]4)c3c2)c1 [Compound 304, N-(5-(3-(7-(Furan-3-yl)-3H-imidazo[4,5-b]pyridin-2-yl)-1H-indazol-5-yl)pyridin-3-yl)pentanamide] | 6 nM |  | 0.079 nM |
| c1cncc(-c2ccnc3[nH]c(-c4n[nH]c5ccc(-c6cncc(CN7CCCCC7)c6)cc45)nc23)c1 [Compound 93, 2-(5-(5-(Piperidin-1-ylmethyl)pyridin-3-yl)-1H-indazol-3-yl)-7-(pyridin-3-yl)-3H-imidazo[4,5-b]pyridine] | > 10000 nM |  | 0.016 nM |
| CN(C)Cc1cncc(-c2ccc3[nH]nc(-c4nc5c(-c6cccs6)ccnc5[nH]4)c3c2)c1 [Compound 325, N,N-Dimethyl-1-(5-(3-(7-(thiophen-2-yl)-3H-imidazo[4,5-b]pyridin-2-yl)-1H-indazol-5-yl)pyridin-3-yl)methanamine] | 932 nM |  | 0.04 nM |
| CC(C)C(=O)Nc1cncc(-c2ccc3[nH]nc(-c4nc5c(-c6cccc(F)c6)ccnc5[nH]4)c3c2)c1 [Compound 9] | 3 nM |  | 9.99 nM |
| Cc1ccc(-c2ccnc3[nH]c(-c4n[nH]c5ccc(-c6cncc(N)c6)cc45)nc23)s1 [Compound 367, 5-(3-(7-(5-Methylthiophen-2-yl)-3H-imidazo[4,5-b]pyridin-2-yl)-1H-indazol-5-yl)pyridin-3-amine] | 4.3 nM |  | 0.314 nM |
| Fc1cccc(-c2ccnc3[nH]c(-c4n[nH]c5ccc(C6=CCNCC6)cc45)nc23)c1 [Compound 1874, 7-(3-Fluorophenyl)-2-(5-(1,2,3,6-tetrahydropyridin-4-yl)-1H-indazol-3-yl)-3H-imidazo[4,5-b]pyridine] | > 1000 nM |  | 0.317 nM |
| O=C(Nc1cncc(-c2ccc3[nH]nc(-c4nc5c(-c6ccsc6)ccnc5[nH]4)c3c2)c1)c1ccccc1 [Compound 271, N-(5-(3-(7-(Thiophen-3-yl)-3H-imidazo[4,5-b]pyridin-2-yl)-1H-indazol-5-yl)pyridin-3-yl)benzamide] | 8.4 nM |  | 0.068 nM |
| O=C(Cc1ccccc1)Nc1cncc(-c2ccc3[nH]nc(-c4nc5c(-c6ccsc6)ccnc5[nH]4)c3c2)c1 [Compound 270, 2-Phenyl-N-(5-(3-(7-(thiophen-3-yl)-3H-imidazo[4,5-b]pyridin-2-yl)-1H-indazol-5-yl)pyridin-3-yl)acetamide] | 16.3 nM |  | 0.01 nM |
| O=C(Nc1cncc(-c2ccc3[nH]nc(-c4nc5c(-c6ccccc6F)ccnc5[nH]4)c3c2)c1)C1CCCC1 [Compound 73, N-(5-(3-(7-(2-Fluorophenyl)-3H-imidazo[4,5-b]pyridin-2-yl)-1H-indazol-5-yl)pyridin-3-yl)cyclopentanecarboxamide] | 13 nM |  | 0.379 nM |
| Fc1ccc(-c2ccnc3[nH]c(-c4n[nH]c5ccc(-c6cncc(CN7CCCC7)c6)cc45)nc23)s1 [Compound 352, 7-(5-Fluorothiophen-2-yl)-2-(5-(5-(pyrrolidin-1-ylmethyl)pyridin-3-yl)-1H-indazol-3-yl)-3H-imidazo[4,5-b]pyridine] | 13.2 nM |  | 0.125 nM |
| O=C(Nc1cncc(-c2ccc3[nH]nc(-c4nc5c(-c6ccccn6)ccnc5[nH]4)c3c2)c1)C1CCC1 [Compound 150, N-(5-(3-(7-(Pyridin-2-yl)-3H-imidazo[4,5-b]pyridin-2-yl)-1H-indazol-5-yl)pyridin-3-yl)cyclobutanecarboxamide] | 15 nM |  | 0.133 nM |
| Fc1cccc(-c2ccnc3[nH]c(-c4n[nH]c5ccc(-c6ccncc6)cc45)nc23)c1 [Compound 1888, 7-(3-Fluorophenyl)-2-(5-(pyridin-4-yl)-1H-indazol-3-yl)-3H-imidazo[4,5-b]pyridine] | > 10000 nM |  | 9.99 nM |
| Fc1ccc(-c2ccnc3[nH]c(-c4n[nH]c5ccc(-c6cncc(CN7CCCC7)c6)cc45)nc23)cc1 [Compound 40, 7-(4-Fluorophenyl)-2-(5-(5-(pyrrolidin-1-ylmethyl)pyridin-3-yl)-1H-indazol-3-yl)-3H-imidazo[4,5-b]pyridine] | 4030 nM |  | 0.009 nM |
| c1ccc(CNCc2cncc(-c3ccc4[nH]nc(-c5nc6c(-c7cccnc7)ccnc6[nH]5)c4c3)c2)cc1 [Compound 101, N-Benzyl-1-(5-(3-(7-(pyridin-3-yl)-3H-imidazo[4,5-b]pyridin-2-yl)-1H-indazol-5-yl)pyridin-3-yl)methanamine] | > 10000 nM |  | 0.235 nM |
| c1cc(-c2ccoc2)c2nc(-c3n[nH]c4ccc(-c5cncc(CNCC6CCCC6)c5)cc34)[nH]c2n1 [Compound 310, 1-Cyclopentyl-N-((5-(3-(7-(furan-3-yl)-3H-imidazo[4,5-b]pyridin-2-yl)-1H-indazol-5-yl)pyridin-3-yl)methyl)methanamine] | 1270 nM |  | 9.99 nM |
| CC(C)(C)CC(=O)Nc1cncc(-c2ccc3[nH]nc(-c4nc5cccnc5[nH]4)c3c2)c1 [Compound 250, N-(5-(3-(3H-Imidazo[4,5-b]pyridin-2-yl)-1H-indazol-5-yl)pyridin-3-yl)-3,3-dimethylbutanamide] | 124 nM |  | 2.6 nM |
| CC(C)Nc1cncc(-c2ccc3[nH]nc(-c4nc5c(-c6cccnc6)ccnc5[nH]4)c3c2)c1 [Compound 90, N-isopropyl-5-(3-(7-(pyridin-3-yl)-3H-imidazo[4,5-b]pyridin-2-yl)-1H-indazol-5-yl)pyridin-3-amine] | 12 nM |  | 0.078 nM |
| O=C(Nc1cncc(-c2ccc3[nH]nc(-c4nc5c(-c6cccs6)ccnc5[nH]4)c3c2)c1)C1CCCC1 [Compound 333, N-(5-(3-(7-(Thiophen-2-yl)-3H-imidazo[4,5-b]pyridin-2-yl)-1H-indazol-5-yl)pyridin-3-yl)cyclopentanecarboxamide] | 6.3 nM |  | 0.009 nM |
| Fc1ccc(-c2ccnc3[nH]c(-c4n[nH]c5ccc(-c6cncnc6)cc45)nc23)cc1 [Compound 52, 7-(4-Fluorophenyl)-2-(5-(pyrimidin-5-yl)-1H-indazol-3-yl)-3H-imidazo[4,5-b]pyridine] | 25.6 nM |  | 1.25 nM |
